Laboratory results: US8673903B2, “Substituted 8-alkoxy-2-aminotetralin derivatives, and use thereof” (Bayer Intellectual Property GmbH, priority 2010, dated 2014)

Assays:
[1] = tested on: rabbit saphenous artery rings; experiment: Vasorelaxant effect in vitro on phenylephrine-contracted saphenous artery rings; parameters: species or system Rabbits; conditions: Oryctolagus cuniculus, contraction induced by phenylephrine
Method: B-3. Vasorelaxant Effect In Vitro:
Rabbits are anesthetized and sacrificed by intravenous injection of thiopental sodium (about 50 mg/kg) and exsanguinated. The saphenous artery is removed and divided into rings 3 mm wide. The rings are mounted singly on in each case a pair of triangular hooks open at the end and made of 0.3 mm-thick special wire (Remanium®). Each ring is placed under an initial tension in 5 ml organ baths with Krebs-Henseleit solution which is at 37° C., is gassed with carbogen and has the following composition: NaCl 119 mM; KCl 4.8 mM; CaCl2×2 H2O 1 mM; MgSO4×7 H2O 1.4 mM; KH2PO4 1.2 mM; NaHCO3 25 mM; glucose 10 mM; bovine serum albumin 0.001%. The force of contraction is detected with Statham UC2 cells, amplified and digitized via A/D converters (DAS-1802 HC, Keithley Instruments, Munich) and recorded in parallel on chart recorders. Contractions are induced by addition of phenylephrine.
After several (generally 4) control cycles, the substance to be investigated is added in each further run in increasing dosage, and the level of the contraction achieved under the influence of the test substance is compared with the level of the contraction reached in the last preceding run. The concentration necessary to reduce the contraction reached in the preceding control by 50% is calculated from this (IC50). The standard application volume is 5 μl. The proportion of DMSO in the bath solution corresponds to 0.1%.

[2] = target: T1, soluble guanylate cyclase (sGC) (Rattus norvegicus, UniProt P20595); experiment: Stimulation of sGC enzyme activity (PPi luminescence detection); format: biochemical; conditions: for EC50: read-out: EC50 (concentration at 50% of maximum efficacy), activating action at the sGC enzyme in vitro
T1 construct: made in house
T1 sequence (P20595 1-619): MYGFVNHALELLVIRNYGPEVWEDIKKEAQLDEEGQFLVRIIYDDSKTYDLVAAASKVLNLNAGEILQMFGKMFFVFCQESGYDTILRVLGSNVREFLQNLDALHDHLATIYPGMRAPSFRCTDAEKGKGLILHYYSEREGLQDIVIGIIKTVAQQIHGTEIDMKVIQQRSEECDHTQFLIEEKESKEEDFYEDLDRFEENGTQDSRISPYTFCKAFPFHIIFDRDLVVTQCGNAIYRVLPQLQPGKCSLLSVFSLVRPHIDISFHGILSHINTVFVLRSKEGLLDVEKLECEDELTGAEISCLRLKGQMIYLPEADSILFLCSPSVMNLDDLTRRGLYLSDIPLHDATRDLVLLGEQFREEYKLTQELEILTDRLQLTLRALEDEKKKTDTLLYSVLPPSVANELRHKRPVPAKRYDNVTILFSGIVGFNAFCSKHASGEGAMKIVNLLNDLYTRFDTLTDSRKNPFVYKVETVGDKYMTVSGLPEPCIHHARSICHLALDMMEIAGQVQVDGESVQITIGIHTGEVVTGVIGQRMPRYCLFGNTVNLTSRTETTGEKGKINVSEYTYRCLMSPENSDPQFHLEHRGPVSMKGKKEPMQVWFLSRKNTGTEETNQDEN
T1 sequence (P19686 1-690 partner): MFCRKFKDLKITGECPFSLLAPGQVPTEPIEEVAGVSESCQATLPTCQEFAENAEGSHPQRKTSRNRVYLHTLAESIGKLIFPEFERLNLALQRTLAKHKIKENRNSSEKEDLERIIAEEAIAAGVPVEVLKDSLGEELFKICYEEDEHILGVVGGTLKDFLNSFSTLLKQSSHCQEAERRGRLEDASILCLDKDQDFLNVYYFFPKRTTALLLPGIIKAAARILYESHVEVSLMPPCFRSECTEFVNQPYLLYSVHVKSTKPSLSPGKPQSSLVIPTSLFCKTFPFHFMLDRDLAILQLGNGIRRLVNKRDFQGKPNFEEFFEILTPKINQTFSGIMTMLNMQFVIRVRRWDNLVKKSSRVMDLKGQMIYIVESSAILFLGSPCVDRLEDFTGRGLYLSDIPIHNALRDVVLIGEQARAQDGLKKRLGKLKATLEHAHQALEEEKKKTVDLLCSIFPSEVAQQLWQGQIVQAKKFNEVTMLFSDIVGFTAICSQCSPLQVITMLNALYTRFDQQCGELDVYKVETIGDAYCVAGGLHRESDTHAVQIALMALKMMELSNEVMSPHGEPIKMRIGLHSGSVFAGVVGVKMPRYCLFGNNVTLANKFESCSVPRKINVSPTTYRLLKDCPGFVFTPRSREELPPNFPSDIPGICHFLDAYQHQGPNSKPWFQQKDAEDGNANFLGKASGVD
Method: B-2. Stimulation of sGC Enzyme Activity
Soluble guanylate cyclase (sGC) converts on stimulation GTP into cGMP and pyrophosphate (PPi). PPi is detected with the aid of the assay described below. The signal produced in the assay increases as the reaction progresses and serves as a measure of the sGC enzyme activity under the given stimulation.
To carry out the assay, 29 μl of enzyme solution [0-10 nM soluble guanylate cyclase (prepared according to Honicka et al., J. Mol. Med. 77, 14-23 (1999)) in 50 mM TEA, 2 mM MgCl2, 0.1% BSA (fraction V), 0.005% Brij®, pH 7.5] are initially introduced into a microplate, and 1 μl of the substance to be tested (as a serially diluted solution in DMSO) is added. The mixture is incubated at room temperature for 10 min. Then 20 μl of detection mix [1.2 nM Firefly Luciferase (Photinus pyralis luciferase, Promega), 29 μM dehydroluciferin (prepared according to Bitler & McElroy, Arch. Biochem. Biophys. 72, 358 (1957)), 122 μM luciferin (Promega), 153 μM ATP (Sigma) and 0.4 mM DTT (Sigma) in 50 mM TEA, 2 mM MgCl2, 0.1% BSA (fraction V), 0.005% Brij®, pH 7.5] are added. The enzyme reaction is started by adding 20 μl of substrate solution [1.25 mM guanosine 5′-triphosphate (Sigma) in 50 mM TEA, 2 mM MgCl2, 0.1% BSA (fraction V), 0.005% Brij®, pH 7.5] and measured continuously in a luminometer. The extent of the stimulation by the substance to be tested can be determined relative to the signal of the unstimulated reaction.
The activation of heme-free guanylate cyclase is examined by addition of 25 μM of 1H-1,2,4-oxadiazolo[4,3-a]quinoxalin-1-one (ODQ) to the enzyme solution and subsequent incubation for 30 minutes and compared to the stimulation of the native enzyme.

[3] = target: T2, soluble guanylate cyclase (sGC), recombinant guanylate cyclase reporter cell line (CHO) (Rattus norvegicus, UniProt P20595); experiment: Action at a recombinant guanylate cyclase reporter cell line (CHO reporter cell); format: cell-based
T2 construct: expressed in transfected cells; host or cells: CHO
T2 sequence (P20595 1-619): T1 sequence (P20595 1-619)
T2 sequence (P19686 1-690 partner): T1 sequence (P19686 1-690 partner)
Method: B-1. Action at a Recombinant Guanylate Cyclase Reporter Cell Line
The cellular action of the compounds according to the invention is determined at a recombinant guanylate cyclase reporter cell line, as described in F. Wunder et al., Anal. Biochem. 339, 104-112 (2005).

| IC50 [1] [nM] | MEC (minimum effective concentration), activating action at the sGC enzyme in vitro [2] [nM] | EC50 [2] [nM] | MEC (minimum effective concentration), sGC-activating activity in the CHO reporter cell in vitro [3] [nM] | SMILES |
| --- | --- | --- | --- | --- |
|  | 830 |  |  | O=C(O)CCCCN(Cc1ccc(C(=O)O)cc1)C1CCc2cccc(OCCCN3CCCC3=O)c2C1 (centres unmarked) [Example 7] |
|  | 700 |  |  | O=C(O)CCCCN(Cc1ccc(C(=O)O)cc1)C1CCc2cccc(OCCCN3CCOCC3=O)c2C1 (centres unmarked) [Example 9] |
|  | 48 | 620 | 30 | CC(C)CCCCOc1cccc2c1CC(N(CCCCC(=O)O)Cc1ccc(C(=O)O)cc1)CC2 (centres unmarked) [Example 10] |
|  | 200 |  | 300 | O=C(O)CCCCN(Cc1ccc(C(=O)O)cc1)C1CCc2cccc(OCc3cccc(F)c3)c2C1 (centres unmarked) [Example 11] |
|  | 205 |  |  | CC(C)(C)c1nc(COc2cccc3c2CC(N(CCCCC(=O)O)Cc2ccc(C(=O)O)cc2)CC3)no1 (centres unmarked) [Example 12] |

The remaining lines, values behind:

| SMILES | IC50 [1] [nM] | MEC (minimum effective concentration), activating action at the sGC enzyme in vitro [2] [nM] | EC50 [2] [nM] | MEC (minimum effective concentration), sGC-activating activity in the CHO reporter cell in vitro [3] [nM] |
| --- | --- | --- | --- | --- |
| CC(C)(C)c1ccc(COc2cccc3c2CC(N(CCCCC(=O)O)Cc2ccc(C(=O)O)cc2)CC3)cc1 (racemic) [Example 1, rac-4-{[{8-[(4-tert-Butylbenzyl)oxy]-1,2,3,4-tetrahydronaphthalen-2-yl}(4-carboxybutyl)amino]-methyl}benzoic acid] | 113 | 0.12 | 8.5 | 0.3 |
| O=C(O)CCCCN(Cc1ccc(C(=O)O)cc1)C1CCc2cccc(OCc3ccc(CCc4ccccc4)cc3)c2C1 (single isomer, unassigned) [Example 5] | 9140 | 0.13 | 1.4 | 0.3 |
| O=C(O)CCCCN(Cc1ccc(C(=O)O)cc1)C1CCc2cccc(OCc3ccc(CCc4ccccc4)cc3)c2C1 (centres unmarked) [Example 4] |  | 0.7 | 7.5 | 3.0 |
| O=C(O)CCCCN(Cc1ccc(C(=O)O)cc1)C1CCc2cccc(OCc3ccc(CCc4ccccc4)cc3)c2C1 (centres unmarked) [Example 6] | 4380 |  |  |  |
